Test results from ChEMBL document CHEMBL5096194, “Development of Alectinib-Based PROTACs as Novel Potent Degraders of Anaplastic Lymphoma Kinase (ALK)” (J Med Chem, 2021).
The source made the active and inactive calls. The rule behind the calls is not given here.

Tests used:
NCI-H3122 = assay: Antiproliferative activity against ALK-positive human NCI-H3122 cells assessed as inhibition of cell proliferation measured after 72 hrs by MTT assay; type: functional, cell-based; settings: NCI-H3122, 72 h
[1] = biological target: T1, Protein cereblon/ALK tyrosine kinase receptor/Echinoderm microtubule-associated protein-like 4 (Homo sapiens) (UniProt Q9UM73+Q9HC35+Q96SW2); assay: Protac activity at CRBN/EML4-ALK in human NCI-H3122 cells assessed as induction of EML4-ALK fusion protein degradation at 0.1 uM incubated for 16 hrs by Western blot analysis relative to control; type: cell-based
BaF3 [2] = assay: Antiproliferative activity against mouse BaF3 cells expressing wild type EML-ALK assessed as cell viability at 1 uM incubated for 72 hrs by Celltitre-Glo assay relative to control; type: functional; settings: read-out: Activity
BaF3 [3] = assay: Antiproliferative activity against crizotinib-resistant mouse BaF3 cells expressing EML-ALK L1196M mutant assessed as cell viability at 1 uM incubated for 72 hrs by Celltitre-Glo assay relative to control; type: functional; settings: read-out: Activity
KARPAS-299 [4] = assay: Antiproliferative activity against ALK-positive human KARPAS-299 cells assessed as inhibition of cell proliferation measured after 72 hrs by MTT assay; type: functional, cell-based; settings: KARPAS-299, 72 h
BaF3 [5] = assay: Antiproliferative activity against crizotinib-resistant mouse BaF3 cells expressing EML-ALK G1202R mutant assessed as cell viability at 1 uM incubated for 72 hrs by Celltitre-Glo assay relative to control; type: functional; settings: read-out: Activity
BaF3 [6] = assay: Antiproliferative activity against crizotinib-resistant mouse BaF3 cells expressing EML-ALK L1152R mutant assessed as cell viability at 1 uM incubated for 72 hrs by Celltitre-Glo assay relative to control; type: functional; settings: read-out: Activity
[7] = biological target: T1, Protein cereblon/ALK tyrosine kinase receptor/Echinoderm microtubule-associated protein-like 4 (Homo sapiens); assay: Protac activity at CRBN/EML4-ALK in human NCI-H3122 cells assessed as induction of EML4-ALK fusion protein degradation at 1 uM incubated for 16 hrs by Western blot analysis relative to control; type: cell-based
[8] = biological target: T2, Protein cereblon/ALK tyrosine kinase receptor/Nucleophosmin (Homo sapiens) (UniProt Q9UM73+P06748+Q96SW2); assay: Protac activity at CRBN/NPM-ALK in human KARPAS-299 cells assessed as induction of NPM-ALK fusion protein degradation at 0.1 uM incubated for 24 hrs by Western blot analysis relative to control; type: cell-based
[9] = biological target: T2, Protein cereblon/ALK tyrosine kinase receptor/Nucleophosmin (Homo sapiens); assay: Protac activity at CRBN/NPM-ALK in human KARPAS-299 cells assessed as induction of NPM-ALK fusion protein degradation at 1 uM incubated for 24 hrs by Western blot analysis relative to control; type: cell-based
[10] = biological target: T3, ALK tyrosine kinase receptor (Homo sapiens, UniProt Q9UM73); assay: Inhibition of ALK phosphorylation in human KARPAS-299 cells at 0.01 to 1 uM measured after 24 hrs by Western blot analysis; type: cell-based; settings: dose 0.01-1 µM
Target sequence in this assay (Q9UM73 19-1620 limits assumed): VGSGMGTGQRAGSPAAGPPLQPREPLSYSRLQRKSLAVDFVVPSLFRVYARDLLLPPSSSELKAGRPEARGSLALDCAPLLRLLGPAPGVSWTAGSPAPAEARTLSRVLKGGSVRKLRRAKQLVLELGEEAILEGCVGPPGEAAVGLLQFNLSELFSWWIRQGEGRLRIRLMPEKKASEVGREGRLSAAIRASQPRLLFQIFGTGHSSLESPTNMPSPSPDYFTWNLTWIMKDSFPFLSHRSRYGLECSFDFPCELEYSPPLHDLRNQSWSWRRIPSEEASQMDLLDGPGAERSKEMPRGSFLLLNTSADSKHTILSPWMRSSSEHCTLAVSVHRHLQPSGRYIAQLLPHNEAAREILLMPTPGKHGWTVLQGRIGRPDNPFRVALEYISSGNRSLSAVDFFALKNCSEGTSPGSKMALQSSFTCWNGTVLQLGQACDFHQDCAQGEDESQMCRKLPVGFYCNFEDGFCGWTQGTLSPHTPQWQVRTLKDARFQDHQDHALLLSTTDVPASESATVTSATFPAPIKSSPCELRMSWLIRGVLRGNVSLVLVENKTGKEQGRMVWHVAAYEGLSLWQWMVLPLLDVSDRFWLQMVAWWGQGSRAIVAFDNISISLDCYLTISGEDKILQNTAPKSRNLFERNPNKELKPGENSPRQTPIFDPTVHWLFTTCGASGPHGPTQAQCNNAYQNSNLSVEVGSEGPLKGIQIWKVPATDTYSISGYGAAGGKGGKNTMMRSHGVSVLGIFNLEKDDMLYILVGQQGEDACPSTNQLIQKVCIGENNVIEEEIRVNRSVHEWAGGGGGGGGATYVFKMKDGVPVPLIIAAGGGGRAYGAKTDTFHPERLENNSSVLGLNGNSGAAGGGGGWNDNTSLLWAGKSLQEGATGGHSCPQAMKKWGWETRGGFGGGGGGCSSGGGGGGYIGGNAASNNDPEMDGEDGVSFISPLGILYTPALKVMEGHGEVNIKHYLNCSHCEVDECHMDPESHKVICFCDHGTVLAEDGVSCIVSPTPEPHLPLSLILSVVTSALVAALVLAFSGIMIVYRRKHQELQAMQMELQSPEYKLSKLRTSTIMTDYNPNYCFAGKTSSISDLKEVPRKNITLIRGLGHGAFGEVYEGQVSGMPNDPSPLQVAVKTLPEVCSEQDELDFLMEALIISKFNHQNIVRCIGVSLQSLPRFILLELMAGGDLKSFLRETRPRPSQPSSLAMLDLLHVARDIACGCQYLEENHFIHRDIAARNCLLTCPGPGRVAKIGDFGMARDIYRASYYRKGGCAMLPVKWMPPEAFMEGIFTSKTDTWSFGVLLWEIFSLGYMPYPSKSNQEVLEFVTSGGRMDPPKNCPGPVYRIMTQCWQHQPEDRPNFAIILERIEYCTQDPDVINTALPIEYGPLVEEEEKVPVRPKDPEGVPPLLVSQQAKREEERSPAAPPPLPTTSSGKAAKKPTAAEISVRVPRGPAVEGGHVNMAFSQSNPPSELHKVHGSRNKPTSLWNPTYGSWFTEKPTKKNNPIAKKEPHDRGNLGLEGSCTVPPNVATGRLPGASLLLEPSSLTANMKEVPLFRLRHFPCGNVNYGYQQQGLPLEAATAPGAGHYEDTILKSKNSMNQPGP

[11] = biological target: Signal transducer and activator of transcription 3 (Homo sapiens) (UniProt P40763); assay: Inhibition of STAT3 phosphorylation in human KARPAS-299 cells as 0.01 to 1 uM measured after 24 hrs by Western blot analysis; type: cell-based; settings: dose 0.01-1 µM
[12] = biological target: T3, ALK tyrosine kinase receptor
KARPAS-299 [13] = assay: Antiproliferative activity against human KARPAS-299 cells assessed as inhibition of cell growth measured after 72 hrs by MTT assay; type: functional, cell-based; settings: KARPAS-299, 72 h
BaF3 [14] = assay: Antiproliferative activity against mouse BaF3 cells assessed as cell viability at 1 uM incubated for 72 hrs by Celltitre-Glo assay relative to control; type: functional; settings: read-out: Activity
[15] = Toxicity in NCG mouse xenografted with human KARPAS-299 cells assessed as kidney damage at 20 mg/kg, po administered once every day for 3 weeks by H and E staining based analysis; type: organism-based; settings: in vivo, 504 h
KARPAS-299 [16] = assay: Antitumor activity against human KARPAS-299 cells xenografted in NCG mouse assessed as tumor growth inhibition at 20 mg/kg, po administered once every day for 3 weeks and measured every 3 days relative to control; type: functional; settings: KARPAS-299, 504 h, read-out: TGI
KARPAS-299 [17] = assay: Antitumor activity against human KARPAS-299 cells xenografted in NCG mouse assessed as reduction in tumor weight at 20 mg/kg, po administered once every day for 3 weeks and measured every 3 days; type: functional, organism-based
[18] = Toxicity in NCG mouse xenografted with human KARPAS-299 cells assessed as heart damage at 20 mg/kg, po administered once every day for 3 weeks by H & E staining based analysis; type: organism-based; settings: in vivo, 504 h
[19] = Toxicity in NCG mouse xenografted with human KARPAS-299 cells assessed as lung damage at 20 mg/kg, po administered once every day for 3 weeks by H and E staining based analysis; type: organism-based; settings: in vivo, 504 h
[20] = Toxicity in NCG mouse xenografted with human KARPAS-299 cells assessed as liver damage at 20 mg/kg, po administered once every day for 3 weeks by H and E staining based analysis; type: organism-based; settings: in vivo, 504 h
[21] = Toxicity in NCG mouse xenografted with human KARPAS-299 cells assessed as body weight loss at 20 mg/kg, po administered once every day for 3 weeks; type: organism-based; settings: in vivo, 504 h
[22] = Toxicity in NCG mouse xenografted with human KARPAS-299 cells assessed as spleen damage at 20 mg/kg, po administered once every day for 3 weeks by H and E staining based analysis; type: organism-based; settings: in vivo, 504 h
[23] = biological target: Leukocyte tyrosine kinase receptor (Homo sapiens) (UniProt P29376); assay: Inhibition of LTK (unknown origin) at 10 nM relative to control
KARPAS-299 [24] = assay: Antitumor activity against human KARPAS-299 cells xenografted in NCG mouse assessed as reduction in tumor volume at 20 mg/kg, po administered once every day for 3 weeks and measured every 3 days; type: functional, organism-based

T2 sequence (P06748 whole entry partner, the tested form may be a part): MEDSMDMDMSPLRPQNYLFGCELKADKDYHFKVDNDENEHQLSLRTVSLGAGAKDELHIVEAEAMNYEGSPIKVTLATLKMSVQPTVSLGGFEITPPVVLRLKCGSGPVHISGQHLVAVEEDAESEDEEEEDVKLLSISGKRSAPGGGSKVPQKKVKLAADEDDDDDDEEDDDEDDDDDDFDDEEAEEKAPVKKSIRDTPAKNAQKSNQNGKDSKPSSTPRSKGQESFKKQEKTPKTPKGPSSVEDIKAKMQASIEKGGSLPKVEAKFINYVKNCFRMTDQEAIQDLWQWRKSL
T2 sequence (Q96SW2 whole entry partner, the tested form may be a part): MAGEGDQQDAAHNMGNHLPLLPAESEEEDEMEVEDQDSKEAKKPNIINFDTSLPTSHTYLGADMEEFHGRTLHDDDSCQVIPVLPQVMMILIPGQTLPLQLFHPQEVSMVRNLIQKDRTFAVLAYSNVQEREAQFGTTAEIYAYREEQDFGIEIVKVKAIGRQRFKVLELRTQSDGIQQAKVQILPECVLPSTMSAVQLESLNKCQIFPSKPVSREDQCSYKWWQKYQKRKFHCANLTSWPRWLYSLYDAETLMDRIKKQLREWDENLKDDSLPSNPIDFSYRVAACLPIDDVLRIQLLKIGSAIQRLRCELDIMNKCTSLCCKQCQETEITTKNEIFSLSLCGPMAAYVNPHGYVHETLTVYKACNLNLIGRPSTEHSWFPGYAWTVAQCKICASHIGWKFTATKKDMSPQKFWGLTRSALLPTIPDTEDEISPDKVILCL
T2 sequence (Q9UM73 19-1620 limits assumed): as the sequence (Q9UM73 19-1620 limits assumed) above
Sequence of Signal transducer and activator of transcription 3 (Homo sapiens) (P40763 whole entry): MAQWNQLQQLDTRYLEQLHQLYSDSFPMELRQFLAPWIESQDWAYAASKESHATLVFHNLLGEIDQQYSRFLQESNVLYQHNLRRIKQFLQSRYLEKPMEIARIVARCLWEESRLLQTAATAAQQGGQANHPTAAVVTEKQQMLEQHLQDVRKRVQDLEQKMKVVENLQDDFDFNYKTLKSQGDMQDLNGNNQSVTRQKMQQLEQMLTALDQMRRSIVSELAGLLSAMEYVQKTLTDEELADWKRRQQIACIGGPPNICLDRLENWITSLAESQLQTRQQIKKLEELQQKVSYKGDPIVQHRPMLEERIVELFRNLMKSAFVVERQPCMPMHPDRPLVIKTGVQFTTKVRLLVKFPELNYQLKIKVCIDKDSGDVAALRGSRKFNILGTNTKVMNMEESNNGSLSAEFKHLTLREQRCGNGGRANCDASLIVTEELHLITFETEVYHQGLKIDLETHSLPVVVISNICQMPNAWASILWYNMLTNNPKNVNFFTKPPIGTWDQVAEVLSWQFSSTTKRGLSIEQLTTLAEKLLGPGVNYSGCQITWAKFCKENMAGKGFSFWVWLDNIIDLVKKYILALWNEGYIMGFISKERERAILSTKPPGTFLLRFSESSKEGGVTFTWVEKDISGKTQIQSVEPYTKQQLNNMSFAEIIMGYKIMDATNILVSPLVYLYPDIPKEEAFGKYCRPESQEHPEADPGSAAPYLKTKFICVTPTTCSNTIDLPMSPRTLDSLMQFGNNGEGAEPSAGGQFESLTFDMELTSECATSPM
T1 sequence (Q96SW2 whole entry partner, the tested form may be a part): as the sequence (Q96SW2 whole entry partner, the tested form may be a part) above
T1 sequence (Q9HC35 whole entry partner, the tested form may be a part): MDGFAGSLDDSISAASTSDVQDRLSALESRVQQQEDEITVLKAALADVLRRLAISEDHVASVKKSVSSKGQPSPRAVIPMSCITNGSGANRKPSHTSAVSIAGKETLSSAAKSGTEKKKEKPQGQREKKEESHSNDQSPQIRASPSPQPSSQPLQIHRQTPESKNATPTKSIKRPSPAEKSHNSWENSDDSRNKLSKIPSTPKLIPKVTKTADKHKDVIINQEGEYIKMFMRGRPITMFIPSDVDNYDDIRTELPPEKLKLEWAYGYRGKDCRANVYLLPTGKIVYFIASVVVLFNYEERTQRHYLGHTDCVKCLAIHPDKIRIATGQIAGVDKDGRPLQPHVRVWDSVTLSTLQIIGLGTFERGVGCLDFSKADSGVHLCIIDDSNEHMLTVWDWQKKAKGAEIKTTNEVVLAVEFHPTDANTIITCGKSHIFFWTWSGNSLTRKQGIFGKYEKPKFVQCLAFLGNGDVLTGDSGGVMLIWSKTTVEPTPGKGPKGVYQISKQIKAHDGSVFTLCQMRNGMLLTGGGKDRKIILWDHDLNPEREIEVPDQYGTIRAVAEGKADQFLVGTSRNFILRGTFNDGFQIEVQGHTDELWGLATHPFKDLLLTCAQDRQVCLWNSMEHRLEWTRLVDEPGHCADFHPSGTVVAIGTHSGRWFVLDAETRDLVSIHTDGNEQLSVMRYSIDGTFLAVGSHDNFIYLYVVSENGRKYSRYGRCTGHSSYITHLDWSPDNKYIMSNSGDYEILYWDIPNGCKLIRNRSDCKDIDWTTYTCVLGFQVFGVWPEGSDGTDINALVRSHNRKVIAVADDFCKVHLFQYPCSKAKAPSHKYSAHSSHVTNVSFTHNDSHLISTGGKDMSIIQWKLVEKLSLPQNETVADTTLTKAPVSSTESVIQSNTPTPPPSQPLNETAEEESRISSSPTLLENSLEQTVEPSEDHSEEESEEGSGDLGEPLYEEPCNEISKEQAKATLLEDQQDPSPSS
T1 sequence (Q9UM73 19-1620 limits assumed): as the sequence (Q9UM73 19-1620 limits assumed) above
Sequence of Leukocyte tyrosine kinase receptor (Homo sapiens) (P29376 whole entry): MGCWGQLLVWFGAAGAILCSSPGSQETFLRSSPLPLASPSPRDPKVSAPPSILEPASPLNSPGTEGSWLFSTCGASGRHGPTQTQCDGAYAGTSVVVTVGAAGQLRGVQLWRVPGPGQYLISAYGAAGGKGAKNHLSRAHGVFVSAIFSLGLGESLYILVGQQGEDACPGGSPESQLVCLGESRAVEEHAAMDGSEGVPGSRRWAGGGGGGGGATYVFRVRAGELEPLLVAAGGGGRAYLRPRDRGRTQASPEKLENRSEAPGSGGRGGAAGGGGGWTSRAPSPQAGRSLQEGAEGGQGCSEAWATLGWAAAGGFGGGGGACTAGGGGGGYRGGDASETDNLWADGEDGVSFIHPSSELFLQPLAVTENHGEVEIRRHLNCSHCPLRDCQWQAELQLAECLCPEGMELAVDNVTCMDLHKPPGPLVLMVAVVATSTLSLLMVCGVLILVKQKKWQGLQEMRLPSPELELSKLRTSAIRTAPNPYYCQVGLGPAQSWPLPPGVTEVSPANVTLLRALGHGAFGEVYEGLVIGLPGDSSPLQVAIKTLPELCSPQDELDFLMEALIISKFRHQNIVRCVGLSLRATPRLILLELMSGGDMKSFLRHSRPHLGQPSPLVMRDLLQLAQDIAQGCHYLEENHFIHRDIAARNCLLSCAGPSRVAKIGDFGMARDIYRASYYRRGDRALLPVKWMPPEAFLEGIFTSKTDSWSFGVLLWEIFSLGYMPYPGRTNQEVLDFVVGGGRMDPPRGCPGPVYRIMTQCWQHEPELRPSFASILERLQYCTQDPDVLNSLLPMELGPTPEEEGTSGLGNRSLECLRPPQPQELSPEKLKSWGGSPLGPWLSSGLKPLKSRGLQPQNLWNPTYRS

Structure (SMILES) | IC50 (NCI-H3122) [nM] | Activity [1] [%] | viability at 1 µM (BaF3 [2]) [%] | viability at 1 µM (BaF3 [3]) [%] | IC50 (KARPAS-299 [4]) [nM] | viability at 1 µM (BaF3 [5]) [%] | viability at 1 µM (BaF3 [6]) [%] | Activity [7] [%] | Activity [8] [%] | Activity [9] [%] | inhibition [10] | inhibition [11] | other results
CCc1cc2c(cc1N1CCC(N3CCN(CC(=O)NCCCCNc4cccc5c4C(=O)N(C4CCC(=O)NC4=O)C5=O)CC3)CC1)C(C)(C)c1[nH]c3cc(C#N)ccc3c1C2=O (stereo not drawn) | 96 | 49.9 | 0.1 | 3.6 | 119 | 70.9 | 0.1 | 87 |  |  |  |  | 
CCc1cc2c(cc1N1CCN(CC(=O)NCCCCCCNc3cccc4c3C(=O)N(C3CCC(=O)NC3=O)C4=O)CC1)C(C)(C)c1[nH]c3cc(C#N)ccc3c1C2=O (stereo not drawn) | 116 | 51.3 |  |  | 114 |  |  | 75.8 | 66.5 | 69.8 | Active | Active | 
CCc1cc2c(cc1N1CCN(C(=O)CNc3cccc4c3C(=O)N(C3CCC(=O)N(C)C3=O)C4=O)CC1)C(C)(C)c1[nH]c3cc(C#N)ccc3c1C2=O (stereo not drawn) | 272 |  |  |  | 275 |  |  |  |  |  |  |  | IC50 [12]: 30600 nM
CCc1cc2c(cc1N1CCN(c3cccc4c3C(=O)N(C3CCC(=O)NC3=O)C4=O)CC1)C(C)(C)c1[nH]c3cc(C#N)ccc3c1C2=O (stereo not drawn) | 186 | 24.3 |  |  | 101 |  |  | 50.2 |  | 29.9 |  |  | 
Nc1cccc2c1C(=O)N(C1CCC(=O)NC1=O)C2=O (stereo not drawn) [POMALIDOMIDE] |  |  |  |  |  |  |  |  |  |  |  |  | IC50 (KARPAS-299 [13]): > 10000 nM
CCc1cc2c(cc1N1CCNCC1)C(C)(C)c1[nH]c3cc(C#N)ccc3c1C2=O | 38 |  | 0.2 | 0.1 | 46 | 0.5 | 0 |  |  |  |  |  | viability at 1 µM (BaF3 [14]): 74%; IC50 [12]: 320 nM
CCc1cc2c(cc1N1CCC(N3CCOCC3)CC1)C(C)(C)c1[nH]c3cc(C#N)ccc3c1C2=O [ALECTINIB] | 45 |  | 0.1 | 1.9 | 47 | 73.3 | 0 |  |  |  |  |  | viability at 1 µM (BaF3 [14]): 100%; Activity [15]: Non-Toxic; inhibition in vivo at 20 mg/kg (KARPAS-299 [16]): 63.8%; Activity (KARPAS-299 [17]): Active; Activity [18]: Non-Toxic; Activity [19]: Non-Toxic; Activity [20]: Non-Toxic; Activity [21]: Non-Toxic; Activity [22]: Non-Toxic; inhibition [23]: > 50%; Activity (KARPAS-299 [24]): Active
CCc1cc2c(cc1N1CCC(N3CCNCC3)CC1)C(C)(C)c1[nH]c3cc(C#N)ccc3c1C2=O | 40 |  | 0.2 | 0.1 | 50 | 0.3 | 0.1 |  |  |  |  |  | IC50 [12]: 290 nM
CCc1cc2c(cc1N1CCN(CC(=O)NCCCCNc3cccc4c3C(=O)N(C3CCC(=O)NC3=O)C4=O)CC1)C(C)(C)c1[nH]c3cc(C#N)ccc3c1C2=O (stereo not drawn) | 77 | 38.3 | 0.1 | 4.8 | 97 | 76.1 | 0 | 75.7 | 56.5 | 76 | Active | Active | 
CCc1cc2c(cc1N1CCC(N3CCN(CC(=O)NCCCCCCNc4cccc5c4C(=O)N(C4CCC(=O)NC4=O)C5=O)CC3)CC1)C(C)(C)c1[nH]c3cc(C#N)ccc3c1C2=O (stereo not drawn) | 118 | 24.5 |  |  | 119 |  |  | 77.3 |  |  |  |  | 
CCc1cc2c(cc1N1CCC(N3CCN(CC(=O)NCCNc4cccc5c4C(=O)N(C4CCC(=O)NC4=O)C5=O)CC3)CC1)C(C)(C)c1[nH]c3cc(C#N)ccc3c1C2=O (stereo not drawn) | 121 | 47.8 |  |  | 111 |  |  | 91 |  |  |  |  | 
CCc1cc2c(cc1N1CCC(N3CCN(C(=O)CNc4cccc5c4C(=O)N(C4CCC(=O)NC4=O)C5=O)CC3)CC1)C(C)(C)c1[nH]c3cc(C#N)ccc3c1C2=O (stereo not drawn) | 107 | 77.3 |  |  | 107 |  |  | 96.9 | 72.8 | 94.3 | Active | Active | 
CCc1cc2c(cc1N1CCC(N3CCN(c4cccc5c4C(=O)N(C4CCC(=O)NC4=O)C5=O)CC3)CC1)C(C)(C)c1[nH]c3cc(C#N)ccc3c1C2=O (stereo not drawn) | 612 |  |  |  | 640 |  |  | 50.6 |  |  |  |  | 
CCc1cc2c(cc1N1CCN(C(=O)CCCNc3cccc4c3C(=O)N(C3CCC(=O)NC3=O)C4=O)CC1)C(C)(C)c1[nH]c3cc(C#N)ccc3c1C2=O (stereo not drawn) | 92 |  |  |  | 66 |  |  |  | 77.4 | 85.9 | Active | Active | 
CCc1cc2c(cc1N1CCN(C(=O)CCCCCNc3cccc4c3C(=O)N(C3CCC(=O)NC3=O)C4=O)CC1)C(C)(C)c1[nH]c3cc(C#N)ccc3c1C2=O (stereo not drawn) | 269 |  |  |  | 245 |  |  |  | 55.1 | 71.6 | Active | Active | 
CCc1cc2c(cc1N1CCN(CC(=O)NCCNc3cccc4c3C(=O)N(C3CCC(=O)NC3=O)C4=O)CC1)C(C)(C)c1[nH]c3cc(C#N)ccc3c1C2=O (stereo not drawn) | 121 | 74.4 |  |  | 106 |  |  | 81.8 | 68.3 | 57.8 | Active | Active | 
